Assay results: ChEMBL document CHEMBL5365546, “The Potential of NOD-like Receptor Protein 3 Inflammasome Inhibitors in the Treatments of Diseases” (ACS Med Chem Lett, 2023)

Tests used:
[1] = target: T1, NACHT, LRR and PYD domains-containing protein 3 (Homo sapiens, UniProt Q96P20); assay: Inhibition of NLRP3 in human PBMC assessed as reduction in LPS-induced TNF level preincubated for 30 mins followed by LPS-stimulation and measured after 6 hrs by MSD assay; assay type: cell-based
[2] = target: T1, NACHT, LRR and PYD domains-containing protein 3; assay: Inhibition of NLRP3 in human PBMC assessed as reduction in LPS-induced IL-1beta level preincubated for 30 mins followed by LPS-stimulation and measured after 6 hrs by MSD assay; assay type: cell-based

T1 sequence (Q96P20 whole entry, the tested form may be a part): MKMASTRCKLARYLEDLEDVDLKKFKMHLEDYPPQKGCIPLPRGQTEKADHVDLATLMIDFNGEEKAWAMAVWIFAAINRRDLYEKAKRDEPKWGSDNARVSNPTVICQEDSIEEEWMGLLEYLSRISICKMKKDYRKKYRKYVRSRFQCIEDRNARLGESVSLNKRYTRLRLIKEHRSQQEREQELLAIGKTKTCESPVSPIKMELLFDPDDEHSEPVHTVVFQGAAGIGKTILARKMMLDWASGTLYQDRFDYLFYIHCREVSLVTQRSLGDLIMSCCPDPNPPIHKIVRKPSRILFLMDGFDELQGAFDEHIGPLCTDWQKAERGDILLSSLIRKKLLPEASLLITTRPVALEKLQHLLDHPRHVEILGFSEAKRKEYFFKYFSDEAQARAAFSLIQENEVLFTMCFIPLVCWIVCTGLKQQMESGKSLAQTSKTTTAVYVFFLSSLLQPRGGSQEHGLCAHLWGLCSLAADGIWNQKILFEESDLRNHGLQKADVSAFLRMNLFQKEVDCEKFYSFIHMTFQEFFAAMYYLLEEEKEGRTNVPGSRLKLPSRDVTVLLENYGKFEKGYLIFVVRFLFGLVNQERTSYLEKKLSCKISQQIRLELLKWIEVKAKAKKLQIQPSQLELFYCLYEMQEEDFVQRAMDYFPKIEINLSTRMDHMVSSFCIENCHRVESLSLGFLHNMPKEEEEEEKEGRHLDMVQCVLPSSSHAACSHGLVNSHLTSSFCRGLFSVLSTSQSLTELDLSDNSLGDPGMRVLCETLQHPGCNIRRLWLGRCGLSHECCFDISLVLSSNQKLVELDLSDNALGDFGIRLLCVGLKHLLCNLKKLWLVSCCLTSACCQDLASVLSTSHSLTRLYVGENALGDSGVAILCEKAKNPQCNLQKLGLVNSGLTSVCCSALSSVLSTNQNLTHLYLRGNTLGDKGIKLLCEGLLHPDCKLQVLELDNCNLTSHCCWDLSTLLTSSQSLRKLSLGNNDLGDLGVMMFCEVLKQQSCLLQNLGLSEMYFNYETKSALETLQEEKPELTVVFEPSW

Structure (SMILES)	AC50 [1]	AC50 [2]
CC(C)c1nn(CC(=O)Nc2ccc3nncn3c2)c(=O)cc1N1CC[C@@H]2C[C@@H]2C1	> 20 µM	0.5 µM
CC(C)c1nn(CC(=O)Nc2ccc3nncn3c2)c(=O)cc1N1CCCC1Cc1ccccn1 (stereo not given)	> 20 µM	1.28 µM
CC(C)c1nn(CC(=O)Nc2ccc3nncn3c2)c(=O)cc1N1C2CCC1CC2	> 10 µM	1.02 µM
CC(C)c1nn(CC(=O)Nc2ccc3nncn3c2)c(=O)cc1Nc1ccccc1	> 10 µM	> 15 µM
CC(C)c1nn(CC(=O)Nc2ccc3nncn3c2)c(=O)cc1NCC1CC1	> 10 µM	1.53 µM
CC(C)c1nn(CC(=O)Nc2ccc3nncn3c2)c(=O)cc1N1CC[C@@H](F)C1	> 10 µM	0.53 µM
CC(C)c1nn(CC(=O)Nc2ccc3nncn3c2)c(=O)cc1N1CC[C@H](C)C1	> 20 µM	0.42 µM
CC(C)c1nn(CC(=O)Nc2ccc3nncn3c2)c(=O)cc1N1CCCCC1	> 20 µM	1.23 µM
CC(C)c1nn(CC(=O)Nc2ccc3nncn3c2)c(=O)cc1N1CCCC1	> 10 µM	0.33 µM
CC(C)c1nn(CC(=O)Nc2ccc3nncn3c2)c(=O)cc1N1CC2CC2C1 (stereo not given)	> 10 µM	0.09 µM
